Values joined by “and” are separate entries in the source; they are usually repeats but may differ in a detail not shown here. Equal values may be shown once.
What was measured:
SHMT2 = biological target: T1, SHMT2 (Homo sapiens, UniProt P34897); assay: SHMT2 coupled enzyme assay with MTHFD2 (NADH production); type: biochemical; conditions: mean (standard error), at least three replicate assays
T1 construct: N-terminal His6-tagged SHMT2 (residues 30–504); made in house; host or cells: E. coli Rosetta (DE3)pLysS
T1 sequence (P34897 30-504): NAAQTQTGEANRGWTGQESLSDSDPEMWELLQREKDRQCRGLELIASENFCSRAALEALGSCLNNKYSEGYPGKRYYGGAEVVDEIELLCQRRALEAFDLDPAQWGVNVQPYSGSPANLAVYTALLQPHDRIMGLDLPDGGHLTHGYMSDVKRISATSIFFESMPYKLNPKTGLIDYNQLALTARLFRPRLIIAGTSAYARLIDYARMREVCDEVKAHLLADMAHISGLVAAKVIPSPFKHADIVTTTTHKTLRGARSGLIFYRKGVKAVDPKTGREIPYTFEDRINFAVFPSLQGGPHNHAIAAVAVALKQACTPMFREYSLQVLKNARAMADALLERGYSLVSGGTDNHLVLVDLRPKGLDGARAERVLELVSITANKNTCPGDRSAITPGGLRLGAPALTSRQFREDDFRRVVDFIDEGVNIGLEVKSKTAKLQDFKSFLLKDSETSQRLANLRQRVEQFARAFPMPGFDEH
Experimental: N-terminal His6-tagged SHMT2 (residues 30–504) and full-length MTHFD2 were expressed in Rosetta (DE3)pLysS cells. One liter cultures were grown in LB media with 100 mg/mL ampicillin and 35 mg/mL chloramphenicol at 37 °C until the OD600 was 0.6. […] The cells were pelleted and resuspended in 25 mL of 25 mM Tris–HCl, pH 7.5, 300 mM NaCl, and 5 mM β-Me. To lyse the cells, 40 mg lysozyme and 8 U DNAse I were added followed by incubation on ice for 15 min. The cells were then lysed by emulsification.
Purification of His-SHMT2 and His-MTHFD2 was by Ni-affinity chromatography (above). For further purification of His-SHMT2, pyridoxal 5′-phosphate (PLP) was added (3-fold excess to His-SHMT2) followed by incubation for 16–18 h. Further purification was by size exclusion chromatography on a Superdex 200 16/60 column (GE Healthcare) with monitoring of PLP absorbance at 435 nm. Purified His-SHMT2 was stored in 20 mM sodium phosphate buffer, pH 7.5, 100 mM potassium chloride, 0.2 mM EDTA, and 5 mM β-ME. To further purify MTHFD2, size exclusion chromatography was performed using a Superdex 200 16/60 column (GE Healthcare). His-MTHFD2 was stored in 50 mM Tris–HCl buffer, pH 7.5, 250 mM sodium chloride, 5% glycerol, and 0.5 mM tris(2-chloroethyl) phosphate (TCEP).
Kinetic measurements were recorded in triplicate in a UV-transparent 96-well plate (Costar 3635) at 298 nm using a BioTek Synergy Neo2 Plate Reader. Initial slopes were graphed against inhibitor concentrations and fit to a three-parameter nonlinear regression to calculate IC50 values for each compound (GraphPad Prism 8.0). […] SHMT2 activity was assayed by monitoring NADH production with a coupled assay including 500 nM His-SHMT2 and 10 μM His-MTHFD2 (1:200 molar ratio His-SHMT2/His-MTHFD2). NADH production by His-MTHFD2 was monitored by fluorescence at 470 nm with excitation at 360 nm (Synergy Neo2 Biotek plate reader). Inhibition constants (Ki’s) were calculated from the IC50 values using the equation Ki = IC50/([S]/KM + 1) and the Km and substrate concentration for THF. The THF concentration in the reaction was 50 mM.

KB tumor cells = assay: Metabolite rescue of growth inhibition in KB cells; type: cell-based, human; conditions: glycine- and nucleoside-free media; for Protection from growth inhibition by adenosine: inhibitor up to 1000 nM, 60 μM adenosine alone
Experimental: Upper panel: schematic of C1 metabolism. Undefined abbreviations include the following: DHF, dihydrofolate; THF, tetrahydrofolate; FAICAR, formyl 5-aminoimidazole-4-carboxamide ribonucleotide; fGAR, formyl GAR; and 5,10-meTHF, 5,10-methylene tetrahydrofolate. Lower panels: KB cells were plated (4000 cells/well) in glycine-, nucleoside-, and folate-free RPMI 1640 medium with 10% dialyzed fetal bovine serum, antibiotics, L-glutamine, and 2 nM leucovorin over a range of inhibitor concentrations in the presence of adenosine (60 μM), glycine (160 μM), thymidine (10 μM), or AICA (320 μM). As shown, combined glycine plus adenosine or AICA was also tested to identify potential mitochondrial C1 targeting.[45] Cell proliferation was assayed with a fluorescence-based assay.[26] Data are representative of at least triplicate experiments (presented as mean values plus/minus standard errors). Methods are described in the Experimental Section, and additional metabolite rescue data for 4, 5, and 8–11 are presented in Figure S3 (Supporting Information).
Metabolite “rescue” experiments have been used to identify targeted pathways for novel antifolate inhibitors including de novo purine nucleotide and thymidylate biosynthesis (protection by adenosine and thymidine, respectively)[25]−[27],[29],[30],[32],[43],[45]−[47] and mitochondrial C1 metabolism (protection by glycine and adenosine).[45] To gain insights into the targeted pathways that contribute to the loss of KB tumor cell proliferation upon treatment with compounds 3–9, we tested the reversal of growth inhibition by the active compounds in Table 1 (up to 1000 nM) in glycine- and nucleoside-free media in the presence of 60 μM adenosine, 160 μM glycine, or 10 μM thymidine alone or with combined adenosine and glycine. The use of glycine- and nucleoside-free media for these experiments expands the ability to identify causal intracellular targets (including previously unrecognized mitochondrial targets[45]) that can be confirmed by targeted metabolomics and direct in vitro assays (below). […] The results of these experiments are shown in Figure 7 (lower panel) and in Figure S3 (Supporting Information).
AICA circumvents the first folate-dependent enzyme, GARFTase, and is directly metabolized to ZMP (AICAR), thus providing a substrate for AICARFTase[26],[32],[46] (Figure 7, upper panel). This distinguishes primary inhibition at GARFTase (protection by AICA) versus AICARFTase (incomplete protection by AICA) for inhibitors of de novo purine biosynthesis.[25]
Additional proliferation assays with metabolite rescue used KB cells to identify the targeted pathway and enzyme(s) in folate- and glycine-free RPMI1640, DFBS, 2 mM glutamine, and antibiotics. […] These assays have been previously described.[25],[26],[45]

[1] = tested on: SHMT2 (mitochondrial C1 metabolism) in KB tumor cells; assay: Targeted metabolomics flux analysis with [2,3,3-2H]serine in KB cells; type: cell-based, human; conditions: 0.1 μM compound, 250 μM [2,3,3-2H]serine, versus vehicle-treated cells
Text: Serine is catabolized in the mitochondria via SHMT2, which converts serine to glycine and 5,10-methylene THF, the latter of which is metabolized by MTHFD2 to 10-CHOTHF and by MTHFD1L to formate (Figure 7).
The cells were processed for liquid chromatography–mass spectrometry (LC–MS) analysis of total serine and glycine, and deuterated serine (M + 3, M + 2, M + 1, and M + 0 serine, where M + n represents species with n deuterium atoms) and glycine (M + 1 and M + 0) isotopomers. The results are shown in Figure 8 and are compared to those for control (vehicle-treated) cells (labeled “N/A”).
Figure 8 Metabolomics flux analysis with [2,3,3-^2H]serine to assay mitochondrial C1 metabolism via SHMT2. (A) A schematic of [2,3,3-^2H]serine metabolism is shown. Heavy (^2H) atoms in serine (colored circles) are metabolized via SHMT2 initially followed by MTHFD2 and MTHFD1L to formate. (B, C) Total serine and glycine and the distribution of the serine (M + n, n = 0−3) and glycine (n = 0 or 1) isotopomers are shown. The loss of M + 3 serine corresponding to the metabolism of [2,3,3-^2H]serine to M + 1 glycine is a direct measure of SHMT2 activity in the cells.[45] Experimental methods are described in the Experimental Section. Results are shown as mean values plus/minus standard deviations (n = 3). *P < 0.05; **P < 0.01. […]
KB cells (1 × 10[6]) were seeded in each of three 60 mm dishes in folate-, serine-, and glycine-free RPMI1640 supplemented with 10% DFBS, 1% penicillin/streptomycin, 2 mM L-glutamine, 285 μM serine, 130 μM glycine, and 2 nM leucovorin. […] The targeted metabolites were quantitatively determined using the AB Sciex QTRAP 6500 LC–MS/MS system. […] Isotopomers were detected using multiple reaction monitoring (MRM) at the positive ionization mode. […] Absolute metabolite concentrations were calculated from calibration curves and then normalized to total protein concentrations measured from the postextraction pellet (solubilized in 0.5 N NaOH) using the Folin-phenol method.[53] […] To correct for multiple comparisons, adjusted p values were determined using Holm’s method.

[2] = tested on: PC43-10 CHO cells (expresses only human RFC); conditions: 96 h; mean (standard error); previously published; cited from earlier work
[3] = tested on: RT16 CHO cells (expresses only human FRα); conditions: 96 h; mean (standard error); previously published; cited from earlier work
[4] = tested on: D4 CHO cells (expresses only human FRβ); conditions: 96 h; mean (standard error); previously published; cited from earlier work
[5] = tested on: KB human tumor cells (RFC/FRα/PCFT); conditions: 96 h, no folic acid; mean (standard error); previously published; cited from earlier work
human GARFTase = biological target: T2, human GARFTase (Homo sapiens, UniProt P22102); design: method as in PMID 33773393, PMID 31289137, PMID 27439469; conditions: mean (standard error); previously reported; cited from earlier work
T2 construct: GARFTase (formyltransferase domain; residues 808–1010); made in house; host or cells: E. coli Rosetta (DE3)pLysS
T2 sequence (P22102 808-1010): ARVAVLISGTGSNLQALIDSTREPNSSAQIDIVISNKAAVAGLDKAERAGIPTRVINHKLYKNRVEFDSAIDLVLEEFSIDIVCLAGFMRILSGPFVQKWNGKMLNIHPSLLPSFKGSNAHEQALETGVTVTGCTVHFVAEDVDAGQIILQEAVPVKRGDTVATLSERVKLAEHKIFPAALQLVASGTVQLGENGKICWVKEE

SMILES	Ki (SHMT2)	Protection from growth inhibition by glycine plus adenosine over adenosine alone (KB tumor cells; 160 μM glycine combined with 60 μM adenosine)	Increase in M + 3 serine [1]	IC50 [2]	IC50 [3]	IC50 [4]	Protection from growth inhibition by adenosine (KB tumor cells)	IC50 [5]	Ki (human GARFTase)
Nc1nc2sc(CCCCc3ccc(C(=O)N[C@@H](CCC(=O)O)C(=O)O)cc3)cc2c(=O)[nH]1 [Compound 2]	12400 nM	substantially enhanced and was complete	2–4 fold	> 1000 nM	9 nM	20 nM			
Nc1nc2sc(CCCc3csc(C(=O)N[C@@H](CCC(=O)O)C(=O)O)c3)cc2c(=O)[nH]1 [Compound 10]				> 1000 nM	0.4 nM and 0.44 nM	0.24 nM	completely protective	1.48 nM	
Nc1nc2sc(CCCCc3csc(C(=O)N[C@@H](CCC(=O)O)C(=O)O)c3)cc2c(=O)[nH]1 [Compound 11]				> 1000 nM	5.62 nM	5.63 nM	completely protective	6.85 nM	> 150000 nM
Nc1nc2[nH]cc(CCc3ccc(C(=O)N[C@@H](CCC(=O)O)C(=O)O)cc3)c2c(=O)[nH]1 [PMX, reference compound]					42 nM	60 nM			

From publication PMC10186366 (ACS Pharmacology & Translational Science, 2023)
